According to patent publication US20110143948A1, “MOLECULAR SIGNATURES AND BIOMARKERS ASSOCIATED WITH MELANOMA AND METHODS OF USE THEREOF” (priority 2008, published 2011):

System: ncRNAs (SEQ ID NO 28-89)
Experiment: ncRNA arrays of melanocytes, keratinocytes, normal skin, melanoma cell lines and patient samples
Set-up: species or system human
Details: for ncRNA array expression, patient 2: melanoma patient 2 sample compared to normal skin; for ncRNA array expression, patient 3: melanoma patient 3 sample compared to normal skin; for ncRNA array expression, patient 4: melanoma patient 4 sample compared to normal skin; for ncRNA array expression, patient 5: melanoma patient 5 sample compared to normal skin; for ncRNA array expression, patient 6: melanoma patient 6 sample compared to normal skin; for ncRNA array expression, patient 7: melanoma patient 7 sample compared to normal skin; for ncRNA array expression, patient 8: melanoma patient 8 sample compared to normal skin; for ncRNA array expression, patient 9: melanoma patient 9 sample compared to normal skin; for ncRNA array expression, patient 10: melanoma patient 10 sample compared to normal skin; for ncRNA array expression, patient 19: melanoma patient 19 sample compared to normal skin; for ncRNA array expression, patient 20: melanoma patient 20 sample compared to normal skin; for ncRNA array expression, patient 21: melanoma patient 21 sample compared to normal skin; for ncRNA array expression, patient 22: melanoma patient 22 sample compared to normal skin; for ncRNA array expression, patient 23: melanoma patient 23 sample compared to normal skin; for ncRNA array expression, patient 24: melanoma patient 24 sample compared to normal skin; for ncRNA array expression, patient 25: melanoma patient 25 sample compared to normal skin; for ncRNA array expression, patient 26: melanoma patient 26 sample compared to normal skin; for ncRNA array expression, patient 27: melanoma patient 27 sample compared to normal skin; for ncRNA array expression, patient 28: melanoma patient 28 sample compared to normal skin; for ncRNA array expression, patient 29: melanoma patient 29 sample compared to normal skin; for ncRNA array expression, patient 30: melanoma patient 30 sample compared to normal skin
How it was run: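 Total RNA from melanocytes, keratinocytes, normal human skin, melanoma cell lines and melanoma patient samples was profiled on an array of >10,000 putative (>200 nt) human and mouse ncRNAs plus RefSeq mRNA probes. Expression was compared with melanocytes or normal skin, keratinocyte signatures were subtracted, and hits were validated by qRT-PCR and Northern blot.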

Row | Substance | ncRNA array expression, patient 2 | ncRNA array expression, patient 3 | ncRNA array expression, patient 4 | ncRNA array expression, patient 5 | ncRNA array expression, patient 6 | ncRNA array expression, patient 7 | ncRNA array expression, patient 8 | ncRNA array expression, patient 9 | ncRNA array expression, patient 10 | ncRNA array expression, patient 19 | ncRNA array expression, patient 20 | ncRNA array expression, patient 21 | ncRNA array expression, patient 22 | ncRNA array expression, patient 23 | ncRNA array expression, patient 24 | ncRNA array expression, patient 25 | ncRNA array expression, patient 26 | ncRNA array expression, patient 27 | ncRNA array expression, patient 28 | ncRNA array expression, patient 29 | further results
1 | SEQ ID NO 74 (TATATTACAGGAGTTGTCTATACGATTATAGTACCTGATTCTTTGGACATATCATTGAAC; listed as DNA, chemistry not given here; listed as Homo sapiens) | 2.155 | 1.879 | 2.326 | 0.3239 | 0.8281 | 2.016 | 1.309 | 0.6157 | 2.172 | −0.2091 | 0.8773 | 1.569 | 0.2398 | 1.776 | 0.8669 | 2.599 | 2.626 | 0.4062 | 2.421 | 1.974 | ncRNA array expression, patient 30: −1.075
2 | SEQ ID NO 75 (CAAGTGGGAAGAAAAAGAGCCCTACGTGGTGACATTCTGGAAGGATATCATGGATGATTG; listed as DNA, chemistry not given here; listed as Homo sapiens) | 0.5875 | 0.2177 | 1.062 | 1.072 | 1.853 | 2.114 | 2.605 | 1.117 | 0.6968 | 1.219 | 2.945 | 1.592 | 1.681 | 1.545 | 2.209 | −0.3024 | 0.226 | 3.291 | 1.546 | 2.221 | ncRNA array expression, patient 30: −1.4645
3 | SEQ ID NO 76 (TGTTTCTAATGCATACTGTGAAAGGAAAAAAAATCACAGTTATCCACCTTCTCAGGGCCT; listed as DNA, chemistry not given here; listed as Homo sapiens) | −1.682 | −1.051 | −1.297 | −1.036 | 0.3953 | −1.741 | −1.681 | −1.284 | −0.6169 | −0.775 | −1.184 | −1.216 | −0.05441 | 0.7328 | −1.262 | −1.549 | −1.597 | −1.555 | −1.598 | −1.765 | ncRNA array expression, patient 30: 0.4068
4 | SEQ ID NO 77 (AAGTTTCCACGGCAGGTTCTCGTAGCACCTTTGGTCAAGAACTGAAGGGGCCTTTAGATG; listed as DNA, chemistry not given here; listed as Homo sapiens) | −2.141 | −1.9159 | −2.042 | −1.549 | −0.8383 | −1.639 | −1.644 | −2.053 | −2.146 | −0.2581 | −1.526 | −1.23 | −0.5892 | 0.23 | −1.578 | −2.219 | −2.157 | −1.387 | −1.165 | −1.796 | ncRNA array expression, patient 30: 0.6447
5 | SEQ ID NO 78 (ATGGAAAGGCCAGGGGAGGGTGGAGCTCAGGAGTGGAAGCACAGGGACTAAGGCCTGAGC; listed as DNA, chemistry not given here; listed as Homo sapiens) | −3.7 | −3.634 | −3.593 | −3.41 | −1.8308 | −3.861 | −3.607 | −3.9856 | −3.496 | −2.807 | −3.82 | −3.781 | −1.089 | −1.0414 | −3.419 | −3.518 | −3.351 | −3.653 | −3.215 | −3.656 | ncRNA array expression, patient 30: 1.597
6 | SEQ ID NO 79 (GTGTGTACTGATGTCAAAGACCAAATGGATGCCCCTGTGGCCAACAGTACCTTGTTAAAC; listed as DNA, chemistry not given here; listed as Homo sapiens) | 0.5938 | 1.324 | 1.428 | 1.43 | 1.201 | 1.729 | 1.728 | 1.129 | 0.1808 | 1.52 | 1.494 | 1.271 | 1.165 | 1.445 | 2.943 | 1.206 | 0.7039 | 0.9237 | 0.5852 | 0.6174 | ncRNA array expression, patient 30: 0.5148
